Experimental data from PubChem BioAssay AID1963425 (Molecular Pharmacology Branch, DTP, NCI, 2024).
Blank lines part the entries; values can stand above or below the molecule they belong to.

System: 323965-272-R-J2-PDC complex spheroid growth, % test/control
Test: Anticancer human tumor 323965-272-R-J2-PDC patient-derived pancreatic carcinoma cell line growth inhibition [Asc]
Settings: for IC50: curve of first compound; for viability, T/C: stronger effect = lower value
Method in brief: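 Tumor cells were grown as complex spheroids with human endothelial cells (HUVEC) and human mesenchymal stem cells as stroma. Agents were tested alone and in combination, in half-log steps down from the clinical Cmax, or from 10 microM where Cmax was unknown.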

[1] = second compound 0.00316 µM, first compound 0.0316 µM
[2] = second compound 0.00316 µM, first compound 0.1 µM
[3] = second compound 0.00316 µM, first compound 0.316 µM
[4] = second compound 0.00316 µM, first compound 1 µM
[5] = second compound 0.01 µM, first compound 0.0316 µM
[6] = second compound 0.01 µM, first compound 0.1 µM
[7] = second compound 0.01 µM, first compound 0.316 µM
[8] = second compound 0.01 µM, first compound 1 µM
[9] = second compound 0.0316 µM, first compound 0.0316 µM
[10] = second compound 0.0316 µM, first compound 0.1 µM
[11] = second compound 0.0316 µM, first compound 0.316 µM
[12] = second compound 0.0316 µM, first compound 1 µM
[13] = second compound 0.1 µM, first compound 0.0316 µM
[14] = second compound 0.1 µM, first compound 0.1 µM
[15] = second compound 0.1 µM, first compound 0.316 µM
[16] = second compound 0.1 µM, first compound 1 µM
[17] = second compound 0.316 µM, first compound 0.0316 µM
[18] = second compound 0.316 µM, first compound 0.1 µM
[19] = second compound 0.316 µM, first compound 0.316 µM
[20] = second compound 0.316 µM, first compound 1 µM
[21] = second compound 1 µM, first compound 0.0316 µM
[22] = second compound 1 µM, first compound 0.1 µM
[23] = second compound 1 µM, first compound 0.316 µM
[24] = second compound 1 µM, first compound 1 µM
[25] = second compound 0.00316 µM, first compound 0.00316 µM
[26] = second compound 0.00316 µM, first compound 0.01 µM
[27] = second compound 0.01 µM, first compound 0.00316 µM
[28] = second compound 0.01 µM, first compound 0.01 µM
[29] = second compound 0.0316 µM, first compound 0.00316 µM
[30] = second compound 0.0316 µM, first compound 0.01 µM
[31] = second compound 0.1 µM, first compound 0.00316 µM
[32] = second compound 0.1 µM, first compound 0.01 µM
[33] = second compound 0.316 µM, first compound 0.00316 µM
[34] = second compound 0.316 µM, first compound 0.01 µM
[35] = second compound 1 µM, first compound 0.00316 µM
[36] = second compound 1 µM, first compound 0.01 µM
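Note: compound exposure lasted 7 days starting three days after spheroid seeding.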
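Throughout, for viability, T/C: 100% = DMSO vehicle control wells with viability set relative to vehicle.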

IC50 (second compound 0.00316 µM): > 10000 nM
IC50 (second compound 0.01 µM): > 10000 nM
IC50 (second compound 0.0316 µM): > 10000 nM
IC50 (second compound 0.1 µM): > 10000 nM
IC50 (second compound 0.316 µM): > 10000 nM
IC50 (second compound 1 µM): > 10000 nM
SMILES: C=CC(=O)N1CCN(c2nc(=O)n(-c3c(C)ccnc3C(C)C)c3nc(-c4c(O)cccc4F)c(F)cc23)C(C)C1 (stereo unspecified) + CNC(C)C(=O)NC1CN(S(=O)(=O)c2cccc(S(=O)(=O)N3CCC4CCC(C(=O)NC(c5ccccc5)c5ccccc5)N4C(=O)C(NC(=O)C(C)NC)C3)c2)CCC2CCC(C(=O)NC(c3ccccc3)c3ccccc3)N2C1=O
viability, T/C [1]: 67.7%
viability, T/C [2]: 59.1%
viability, T/C [3]: 61.1%
viability, T/C [4]: 57.4%
viability, T/C (second compound 0.00316 µM, first compound 3.16 µM): 66.1%
viability, T/C (second compound 0.00316 µM, first compound 10 µM): 60.2%
viability, T/C [5]: 66.5%
viability, T/C [6]: 70.6%
viability, T/C [7]: 56.9%
viability, T/C [8]: 69.8%
viability, T/C (second compound 0.01 µM, first compound 3.16 µM): 55.9%
viability, T/C (second compound 0.01 µM, first compound 10 µM): 70.3%
viability, T/C [9]: 83.4%
viability, T/C [10]: 67.7%
viability, T/C [11]: 62.4%
viability, T/C [12]: 60.6%
viability, T/C (second compound 0.0316 µM, first compound 3.16 µM): 62%
viability, T/C (second compound 0.0316 µM, first compound 10 µM): 67.2%
viability, T/C [13]: 76.3%
viability, T/C [14]: 60.5%
viability, T/C [15]: 66.7%
viability, T/C [16]: 58.8%
viability, T/C (second compound 0.1 µM, first compound 3.16 µM): 63.9%
viability, T/C (second compound 0.1 µM, first compound 10 µM): 61.3%
viability, T/C [17]: 64.3%
viability, T/C [18]: 65.8%
viability, T/C [19]: 56.9%
viability, T/C [20]: 54.9%
viability, T/C (second compound 0.316 µM, first compound 3.16 µM): 63.2%
viability, T/C (second compound 0.316 µM, first compound 10 µM): 64.3%
viability, T/C [21]: 60.1%
viability, T/C [22]: 61.1%
viability, T/C [23]: 57.9%
viability, T/C [24]: 60.3%
viability, T/C (second compound 1 µM, first compound 3.16 µM): 59%
viability, T/C (second compound 1 µM, first compound 10 µM): 56.6%

IC50 (second compound 0.00316 µM): 129 nM
IC50 (second compound 0.01 µM): 99.2 nM
IC50 (second compound 0.0316 µM): 92.6 nM
IC50 (second compound 0.1 µM): 78.4 nM
IC50 (second compound 0.316 µM): 102 nM
IC50 (second compound 1 µM): 70.5 nM
SMILES: COc1c(OCCCN2CCOCC2)ccc2c3n(c(=NC(=O)c4cnc(N)nc4)nc12)CCN3 + CNC(C)C(=O)NC1CN(S(=O)(=O)c2cccc(S(=O)(=O)N3CCC4CCC(C(=O)NC(c5ccccc5)c5ccccc5)N4C(=O)C(NC(=O)C(C)NC)C3)c2)CCC2CCC(C(=O)NC(c3ccccc3)c3ccccc3)N2C1=O
viability, T/C [25]: 97.2%
viability, T/C [26]: 81.3%
viability, T/C [1]: 69.5%
viability, T/C [2]: 54.6%
viability, T/C [3]: 36.9%
viability, T/C [4]: 32.4%
viability, T/C [27]: 91.6%
viability, T/C [28]: 88.9%
viability, T/C [5]: 60.1%
viability, T/C [6]: 52.8%
viability, T/C [7]: 36.8%
viability, T/C [8]: 26%
viability, T/C [29]: 94.7%
viability, T/C [30]: 84.1%
viability, T/C [9]: 66.4%
viability, T/C [10]: 48.6%
viability, T/C [11]: 37.6%
viability, T/C [12]: 31.3%
viability, T/C [31]: 89.5%
viability, T/C [32]: 80.1%
viability, T/C [13]: 62.9%
viability, T/C [14]: 49.3%
viability, T/C [15]: 29.9%
viability, T/C [16]: 29.4%
viability, T/C [33]: 84.9%
viability, T/C [34]: 85.4%
viability, T/C [17]: 73.3%
viability, T/C [18]: 49.7%
viability, T/C [19]: 36.8%
viability, T/C [20]: 30.3%
viability, T/C [35]: 85.2%
viability, T/C [36]: 76.3%
viability, T/C [21]: 60.5%
viability, T/C [22]: 43.4%
viability, T/C [23]: 35.8%
viability, T/C [24]: 24.3%

IC50 (second compound 0.00316 µM): > 100 nM
IC50 (second compound 0.01 µM): > 100 nM
IC50 (second compound 0.0316 µM): > 100 nM
IC50 (second compound 0.1 µM): > 100 nM
IC50 (second compound 0.316 µM): > 100 nM
IC50 (second compound 1 µM): > 100 nM
SMILES: NC1CCC(NC2CC2c2ccccc2)CC1 (stereo unspecified) + CNC(C)C(=O)NC1CN(S(=O)(=O)c2cccc(S(=O)(=O)N3CCC4CCC(C(=O)NC(c5ccccc5)c5ccccc5)N4C(=O)C(NC(=O)C(C)NC)C3)c2)CCC2CCC(C(=O)NC(c3ccccc3)c3ccccc3)N2C1=O
viability, T/C (second compound 0.00316 µM, first compound 0.000316 µM): 96.2%
viability, T/C (second compound 0.00316 µM, first compound 0.001 µM): 91.7%
viability, T/C [25]: 104%
viability, T/C [26]: 97%
viability, T/C [1]: 97.6%
viability, T/C [2]: 94.2%
viability, T/C (second compound 0.01 µM, first compound 0.000316 µM): 97.6%
viability, T/C (second compound 0.01 µM, first compound 0.001 µM): 86.7%
viability, T/C [27]: 95.9%
viability, T/C [28]: 101%
viability, T/C [5]: 99.3%
viability, T/C [6]: 90.5%
viability, T/C (second compound 0.0316 µM, first compound 0.000316 µM): 106%
viability, T/C (second compound 0.0316 µM, first compound 0.001 µM): 94.9%
viability, T/C [29]: 91.5%
viability, T/C [30]: 99.3%
viability, T/C [9]: 97.2%
viability, T/C [10]: 97.1%
viability, T/C (second compound 0.1 µM, first compound 0.000316 µM): 95%
viability, T/C (second compound 0.1 µM, first compound 0.001 µM): 88.6%
viability, T/C [31]: 87.6%
viability, T/C [32]: 85.3%
viability, T/C [13]: 96.1%
viability, T/C [14]: 96.7%
viability, T/C (second compound 0.316 µM, first compound 0.000316 µM): 109%
viability, T/C (second compound 0.316 µM, first compound 0.001 µM): 92%
viability, T/C [33]: 88.7%
viability, T/C [34]: 97.5%
viability, T/C [17]: 95.9%
viability, T/C [18]: 91.2%
viability, T/C (second compound 1 µM, first compound 0.000316 µM): 93.5%
viability, T/C (second compound 1 µM, first compound 0.001 µM): 80.2%
viability, T/C [35]: 87%
viability, T/C [36]: 87.3%
viability, T/C [21]: 109%
viability, T/C [22]: 85.2%
